According to US20170266269A1, “METHODS OF IDENTIFYING ANTIGENS FOR VACCINES” (UNIVERSITY OF WASHINGTON THROUGH ITS CENTER FOR …, priority 2014, published 2017):

Legend:
[1] = system: human peripheral blood mononuclear cells (PBMC); experiment: IFNγ ELISPOT of human PBMC with epitope peptides; format: cell-based; conditions: CD105 and HIF1α peptides
Source text: (§1) A plurality of immunological assays may be used with the methods or processes described herein to test at least one peptides of putative epitopes or nucleic acids encoding peptides of putative epitopes to determine if the peptide of the putative epitope elicits an immune response, often the sub-type of the immune response may be determined, often the immunologic assay may be an ELISPOT assay, an ELISA assay, a multiplex assay or the like. For example, a suitable immunologic assay may include performing an ELISPOT assay using cells derived from donors. The ELISPOT assay may include isolating peripheral blood mononuclear cells (PBMC) from at least 10, preferably at least 40, subjects, often the subjects are human donors. The amount of at least one cytokine production in cells following administration of the peptides of putative epitopes may be determined by the ELISPOT assay. The at least one cytokine may be IFNγ and/or IL-10 such that data indicating cytokine production may represent a positive or a negative response of cells to the peptide sequence of the putative epitope. In some cases, positive responses may have a statistically significant difference (p<0.05) between a mean number of spots from five replicates in the experimental wells and the mean number from no antigen control wells. In other cases, negative responses may not have a statistically significant difference (p<0.05) between a mean number of spots from five replicates in the experimental wells and the mean number from no antigen control wells.
(§2) This example describes the identification of unique and discrete amino acid sequences of antigenic epitopes from breast cancer stem cell and epithelial mesenchymal transformation peptides CD105 and HIF-1a, both of which are promiscuous MHC class II binders and unexpectedly stimulate high (magnitude and incidence) interferon gamma (IFNγ) and low or no interleukin (IL)-10 responses from human peripheral blood mononuclear cells (PBMC). CD105 and HIF1α have been juxtaposed to allow construction of extended epitope sequences for inclusion in either a peptide or DNA plasmid-based multi-antigen polyepitope CD4+ T-cell vaccine targeting breast cancer stem cell and epithelial mesenchymal transformation antigens in cancer patients.
(§3) […] peptides, predicted to bind promiscuously to human MHCII, were selected using web-based algorithms according to the methods described herein. Peripheral blood mononuclear cells (PBMC) from 20 female breast cancer patients were cryopreserved and evaluated by ELISPOT for antigen specific IFNγ or IL-10 secretion, according to our published methods. […] Data is reported as the mean number of spots for each experimental antigen minus the mean number of spots detected in no antigen control wells (corrected spots per well: CSPW). Positive responses were defined by a statistically significant difference (p<0.05) between the mean number of spots from five replicates in the experimental wells and the mean number from no antigen control wells for an individual (see FIG. 15).
(§4) The unpaired, two-tailed Student's t-test, Fischer's exact test or X^2 test was used to evaluate differences between groups. […] All statistical analyses were performed using GraphPad Prism 5.04 (e.g., GraphPad Software).

[2] = system: human peripheral blood mononuclear cells (PBMC); experiment: IL-10 ELISPOT of human PBMC with epitope peptides; format: cell-based; conditions: CD105 and HIF1α peptides
Source text: as §1, §2, §3, §4

Substance | IFNγ response [1] | IL-10 response [2]
CD105 p626-642: peptide at the C-terminus of CD105 (VVAVAAPASSESSSTNH; UniProt P17813 626-642, looked up, fragment) | strong | low or no
GHKEAHILRVLPGHSAGPRTVTV [CD105 p214-236] | strong | low or no
LHLAYNSSLVTFQEP [CD105 p116-130] | strong | low or no
MRLTISYLRVRKLLDAGDLDIED [HIF1α p60-82] | strong | no or low
VLLVLSVNSSVFLHLQALGI [CD105 p 96-114] | strong | low or no
YELAHQLPLPHNVSSH [HIF1α p38-53] | strong | no or low
